One data set deals with CYP3A. Particulars: cited from earlier work.
The conditions of data set [1]: cited from earlier work.
For data set [2] the following is noted: cited from earlier work. The source holds these as a separate data set.
For data set [3] the following is noted: cited from earlier work. This is another data set of the same source.
The next data set relates to CYP2J2. The settings on record: cited from earlier work.
Data set [4] is described as follows: Plasma pharmacokinetics of the azole antifungals. The settings on record: after first 200 mg dose, fasting; LLOQ 0.1 µg/mL. The data set is classed as in vivo, human.
Another data set relates to P-gp/BCRP. Particulars: cited from earlier work.
Data set [5] in a line: Pharmacokinetics of microdosed rivaroxaban. Particulars: rivaroxaban 25 µg microdose with the azole named as label, vs baseline.
In the next data set the test system is CYP2D6. Particulars: multiple doses of isavuconazole; cited from earlier work.
In another data set the test system is CYP2C19. Particulars: cited from earlier work.
The test system of the next data set is CYP2C9. Particulars: cited from earlier work.
The nature of data set [6]: Pharmacokinetics of microdosed edoxaban.
The conditions of data set [7]: posaconazole as tablets; general statement, ref not given; cited from earlier work.
For data set [8] the following is noted: rivaroxaban with more than one combined P-gp and CYP3A4 inhibitor; atrial fibrillation patients; 95% CI 1.01–1.85, p = 0.04; cited from earlier work.

The structures appear in SMILES notation.

Consider `CC(=O)N1CCN(c2ccc(OCC3COC(Cn4ccnc4)(c4ccc(Cl)cc4Cl)O3)cc2)CC1` (stereo not drawn) [Ketoconazole, ketoconazole], for which, in the data set with CYP3A, the CYP3A inhibitor classification entry was “Strong”. For the same compound, in [1] (similar perpetrator dose, longer pretreatment), the “Apixaban Cmax increase with ketoconazole, published” value is on record as 1.6 fold. For the same compound, in data set [2], the “Rivaroxaban AUC increase with ketoconazole, published” value is recorded as 2.6 fold. The “Edoxaban AUC increase with ketoconazole, published” value in [3] was 1.9 fold. Besides, in the data set with CYP2J2, the CYP2J2 inhibitor classification result is reported as “potent inhibitor”.
Take `CCC(C)n1ncn(-c2ccc(N3CCN(c4ccc(OCC5COC(Cn6cncn6)(c6ccc(Cl)cc6Cl)O5)cc4)CC3)cc2)c1=O` (stereo not drawn) [Itraconazole, itraconazole]: the “Azole plasma concentrations (in words)” value in data set [4] was “below the LLOQ”. Further, the P-gp/BCRP inhibitor classification result in the data set with P-gp/BCRP is recorded as “P-gp/BCRP inhibitor”. Further, the CYP3A inhibitor classification result with CYP3A is “Strong”.
For `C[C@@H](c1nc(-c2ccc(C#N)cc2)cs1)[C@](O)(Cn1cncn1)c1cc(F)ccc1F` [Isavuconazole, isavuconazole], in data set [5], the “Effect of azole on rivaroxaban pharmacokinetics (in words)” value is “did not alter any pharmacokinetic parameters”. The P-gp/BCRP inhibitor classification entry in the data set on P-gp/BCRP was “P-gp inhibitor, but not BCRP inhibitor”. For the same compound, in the data set on CYP3A, the CYP3A inhibitor classification result is listed as “Weak to moderate”. Also, the “Increase in dextromethorphan exposure” value with CYP2D6 is reported as less than 20%.
As to `COc1ccc(-n2nc(C(N)=O)c3c2C(=O)N(c2ccc(N4CCCCC4=O)cc2)CC3)cc1` [Apixaban, apixaban], in data set [1], the “Contribution of CYP enzymes other than CYP3A to overall elimination of apixaban” value is on record as 6%.
`OC(Cn1cncn1)(Cn1cncn1)c1ccc(F)cc1F` [Fluconazole, fluconazole]: the P-gp/BCRP inhibitor classification result in the data set with P-gp/BCRP is reported as “not P-gp/BCRP, inhibitor”. Further, the CYP3A inhibitor classification entry in the data set on CYP3A is “Mainly moderate”. In the data set with CYP2C19, the CYP2C19 inhibitor classification entry is listed as “strong”. Further, the CYP2C9 inhibitor classification entry with CYP2C9 is reported as “moderate”. Moreover, the “Rivaroxaban CL/F reduction with fluconazole, published” value in data set [2] (therapeutic dose of rivaroxaban, 4 days pre-exposure) is 29%.
Turning to `CN1CCc2nc(C(=O)N[C@@H]3C[C@@H](C(=O)N(C)C)CC[C@@H]3NC(=O)C(=O)Nc3ccc(Cl)cn3)sc2C1` [Edoxaban, edoxaban], the “Average CL/F of edoxaban higher than published values” in data set [6] (compared with 18 study participants of ref 24) is 30%. For the same compound, the “Edoxaban individual CL/F, observed range” value in data set [6] (this study, 50 µg microdose) lay in the range of 600 to 2200 mL/min. In addition, the “Edoxaban individual CL/F, range of previous study” value in data set [3] (18 study participants) is 490 to 1460 mL/min. In [3], the Edoxaban bioavailability entry is on record as “approximately 62%”, the “Edoxaban dose eliminated unchanged in the urine” value is on record as “approximately 24%”, the “Edoxaban dose excreted unchanged in the faeces” value is “About 50%” and the “Part of edoxaban elimination by CYP-mediated metabolism” value is less than 4%.
On to `CC[C@@H]([C@H](C)O)n1ncn(-c2ccc(N3CCN(c4ccc(OC[C@@H]5CO[C@@](Cn6cncn6)(c6ccc(F)cc6F)C5)cc4)CC3)cc2)c1=O` [Posaconazole, posaconazole], for which the “Time at which maximum plasma concentrations are reached (tmax)” value in data set [7] was 4 to 5 h. Besides, the P-gp/BCRP inhibitor classification result in the data set on P-gp/BCRP was “in vitro P-gp/BCRP inhibitor”. In addition, in the data set on CYP3A, the CYP3A inhibitor classification entry is reported as “Strong”.
Turning to `C[C@@H](c1ncncc1F)[C@](O)(Cn1cncn1)c1ccc(F)cc1F` [Voriconazole, voriconazole], in the data set with P-gp/BCRP, the P-gp/BCRP inhibitor classification entry is listed as “not P-gp/BCRP, inhibitor”. In addition, in the data set with CYP3A, the CYP3A inhibitor classification entry is listed as “Strong”.
For `O=C(NC[C@H]1CN(c2ccc(N3CCOCC3=O)cc2)C(=O)O1)c1ccc(Cl)s1` [Rivaroxaban, rivaroxaban], the “Bleeding risk ratio (RR) compared with warfarin” value in data set [8] is reported as 1.37. In [2], the “Rivaroxaban P-gp/BCRP-dependent active renal secretion” value is recorded as “approximately 30 % of a dose”, the Rivaroxaban bioavailability is 80–100%, the “Rivaroxaban partial clearance by non-enzymatic hydrolysis” value is “approximately 14%” and the “Rivaroxaban partial clearance mediated by CYP2J2” value was “approximately 14%”. The “Rivaroxaban partial clearance mediated by CYP3A” value in data set [2] is “approximately 18 % of a dose”.

Source of the values: article PMC8761715 (Clinical Pharmacokinetics, 2021).
